Test results: patent EP4603105A1, “PHARMACEUTICAL COMPOSITION CONTAINING CYCLIC COMPOUND HAVING SELECTIVE KRAS INHIBITORY EFFECT AGAINST HRAS AND NRAS” (CHUGAI SEIYAKU KABUSHIKI KAISHA, priority 2022, dated 2024)

Key:
[1] = tested on: human lung cancer strain NCI-H441; assay type: cell-based
How it was run: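 Step one: dispense the test compound in serial DMSO dilutions. Step three: add the reagent and measure […].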

[2] = tested on: human bladder cancer strain UM-UC-3; assay type: cell-based
How it was run: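 UM-UC-3 human bladder cancer cells were seeded at 250 cells/well onto serially diluted compound in MEM with 10% FBS. Viability was read as CellTiter-Glo luminescence.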

[3] = biological target: HRAS wild-type protein (Homo sapiens, UniProt P01112); assay: Binding to HRAS by surface plasmon resonance (SPR), KD and KD ratio to KRAS; conditions: ratio of KD for HRAS wild-type protein to KD for KRAS
Chain of HRAS wild-type protein (P01112 whole entry): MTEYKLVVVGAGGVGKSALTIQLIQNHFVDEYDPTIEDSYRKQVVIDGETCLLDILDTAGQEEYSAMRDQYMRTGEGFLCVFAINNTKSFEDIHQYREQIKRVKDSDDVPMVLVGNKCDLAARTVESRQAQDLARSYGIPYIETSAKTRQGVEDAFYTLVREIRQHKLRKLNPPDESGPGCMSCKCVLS
How it was run: (§1)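 Biotinylated GDP-bound RAS was captured at about 100–300 RU. Running buffer: HBS pH 7.4, 10 mM MgCl2, 10 µM GDP, 1 mM DTT, 0.01% Tween 20, 4% DMSO.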

[4] = tested on: human gastric cancer strain GSU; assay type: cell-based
How it was run: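 Cells seeded at 200 per well in RPMI-1640 with 10% FBS onto serially diluted compound (DMSO) in U-bottom plates. Viability read by CellTiter-Glo luminescence.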

[5] = tested on: human ovarian cancer strain OV7; assay type: cell-based
How it was run: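 OV7 cells, 250 per well, in DMEM/Ham's F-12 with 5% FBS, 0.5 µg/mL hydrocortisone and 10 µg/mL insulin, grown 7 days at 37°C with serially diluted compound. Viability by CellTiter-Glo luminescence.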

[6] = biological target: GDP-bound KRAS wild-type protein (Homo sapiens, UniProt P01116); assay: Binding to KRAS by surface plasmon resonance (SPR), dissociation constant KD; conditions: Single Cycle Kinetics
Chain of GDP-bound KRAS wild-type protein (P01116 1-188 isoform P01116-2): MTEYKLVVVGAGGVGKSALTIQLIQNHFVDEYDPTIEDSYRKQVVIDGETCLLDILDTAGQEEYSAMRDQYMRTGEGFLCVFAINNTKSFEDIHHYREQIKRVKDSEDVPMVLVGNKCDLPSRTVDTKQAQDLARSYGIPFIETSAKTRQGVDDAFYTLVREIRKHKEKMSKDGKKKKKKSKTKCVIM
How it was run: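 Captured GDP-RAS (~100–300 RU) was exposed to increasing compound concentrations, 75 s per step, in running buffer with 10 µM GDP, 10 mM MgCl2 and 4% DMSO at pH 7.4.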

[7] = tested on: human pancreatic cancer strain KP4; assay type: cell-based
How it was run: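 KP4 pancreatic cancer cells seeded at 500 cells/well in DMEM/Ham's F-12 with 10% FBS onto serially diluted compound. Viability read by CellTiter-Glo luminescence.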

[8] = biological target: GDP-bound NRAS wild-type protein (Homo sapiens, UniProt P01111); assay: Binding to NRAS by surface plasmon resonance (SPR), KD and KD ratio to KRAS; conditions: ratio of KD for GDP-bound NRAS wild-type protein to KD for KRAS
Chain of GDP-bound NRAS wild-type protein (P01111 whole entry): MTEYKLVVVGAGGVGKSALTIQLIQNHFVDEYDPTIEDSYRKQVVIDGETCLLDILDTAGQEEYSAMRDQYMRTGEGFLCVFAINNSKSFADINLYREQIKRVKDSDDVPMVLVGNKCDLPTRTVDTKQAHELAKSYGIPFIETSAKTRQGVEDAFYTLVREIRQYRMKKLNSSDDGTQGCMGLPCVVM
How it was run: as §1

[9] = tested on: human colorectal cancer strain GP2d; assay type: cell-based
How it was run: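 Cells seeded at 500 cells/well in DMEM with 10% FBS onto serially diluted compound in DMSO, then cultured 7 days at 37°C, 5% CO2. Viability read by CellTiter-Glo luminescence.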

[10] = tested on: human gastric cancer strain SNU-1; assay type: cell-based
How it was run: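 SNU-1 gastric cancer cells, 250 cells/well in RPMI-1640 with 10% FBS, glucose, HEPES and sodium pyruvate, plated onto serially diluted compound in DMSO.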

Compound | IC50 [1] [nM] | IC50 [2] [nM] | HRAS /KRAS [3] | IC50 [4] [nM] | IC50 [5] [nM] | Kd [6] [nM] | IC50 [7] [nM] | NRAS /KRAS [8] | IC50 [9] [nM] | IC50 [10] [nM]
CCO[C@@H]1C[C@H]2C(=O)NC3(CCCC3)C(=O)N(C)[C@@H](C3CCCC3)C(=O)N(C)[C@H](C(=O)N(C)C)CC(=O)N(C)[C@@H](CC(C)C)C(=O)N[C@@H]([C@@H](C)CC)C(=O)N(C)CC(=O)N(C)[C@H]3C/C=C\CCN(C3=O)[C@@H](Cc3ccc(C)cc3)C(=O)N(C)CC(=O)N[C@@H](CCc3cc(F)c(C(F)(F)F)c(F)c3)C(=O)N2C1 [PP3478, (2S,8S,12R,14S,20S,23S,27S,30S,36S,38Z)-20-cyclopentyl-8-[2-[3,5-difluoro-4-(trifluoromethyl)phenyl]ethyl]-12-ethoxy-27-isobutyl-N,N,4,19,22,26,32,35-octamethyl-30-[(1S)-1-methylpropyl]-3,6,9,15,18,21,25,28,31,34,42-undecaoxo-2-(p-tolylmethyl)spiro[1,4,7,10,16,19,22,26,29,32,35-undecazatricyclo[34.5.1.0^10,14]dotetracont-38-ene-17,1'-cyclopentane]-23-carboxamide] | 5.8 | 2.9 | A (a compound having 10 or more and less than 20 is denoted as A) | 0.9 | 14.4 | 0.11 | 15.1 | A (a compound having 10 or more and less than 20 is denoted as A) | 5.1 | 4
CCO[C@@H]1C[C@H]2C(=O)OC3(CCC3)C(=O)N(C)[C@@H](C3CCCC3)C(=O)N(C)[C@H](C(=O)N(C)C)CC(=O)N(C)[C@@H]([C@@H](C)OC)C(=O)N[C@@H]([C@@H](C)CC)C(=O)N(C)CC(=O)N(C)[C@H]3C/C=C\CCN(C3=O)[C@@H](Cc3ccc(C(F)(F)F)cc3)C(=O)N(C)CC(=O)N[C@@H](CCc3ccc(C(F)(F)F)c(OC)c3)C(=O)N2C1 [PP3376, (2S,8S,12R,14S,20S,23S,27S,30S,36S,38Z)-20-cyclopentyl-12-ethoxy-27-[(1R)-1-methoxyethyl]-8-[2-[3-methoxy-4-(trifluoromethyl)phenyl]ethyl]-N,N,4,19,22,26,32,35-octamethyl-30-[(1S)-1-methylpropyl]-3,6,9,15,18,21,25,28,31,34,42-undecaoxo-2-[[4-(trifluoromethyl)phenyl]methyl]spiro[16-oxa-1,4,7,10,19,22,26,29,32,35-decazatricyclo[34.5.1.0^10,14]dotetracont-38-ene-17,1'-cyclobutane]-23-carboxamide] | 2.4 | 2.2 | A (a compound having 10 or more and less than 20 is denoted as A) | 0.6 | 4.3 | 0.096 | 6.8 | A (a compound having 10 or more and less than 20 is denoted as A) | 2.9 | 4.3
